Data published in patent US20130196320A1, “METHOD FOR IMPROVING CLEAVAGE OF DNA BY ENDONUCLEASE SENSITIVE TO METHYLATION” (CELLECTIS, priority 2010, published 2013).

Experiments:
[1] = system: XPC4 target CpG motives in 293H cells; assay: DNA methylation of XPC4 target by bisulfite treatment and sequencing, 5-aza-2-deoxycytidine treatment; assay type: cell-based, human; details: for amount of unmethylated C, % of total: one of the two CpG of XPC4 target; for amount of unmethylated C: the other CpG of XPC4 target
Protocol: FIG. 9: Chromatograms of sequencing reactions at the XPC4 target locus, made after bisulfite treatment. Cells were pre-treated with 5-aza-2-deoxycytidine at 0.2 μM or 1 μM 48 hours before transfection with the XPC4 meganuclease or with an empty vector. The treatment was maintained 48 hours post-transfection. As a control, we used cells not treated with 5-aza-2-deoxycytidine (NT). Two days post transfection, genomic DNA was extracted and treated with bisulfite, which converts cytosine, but not 5-methylcytosine into uracil. DNA from the XPC4 target locus region was amplified by PCR, and sequenced. Sequence of the XPC4 target is indicated on top (XPC4 target), with the two CpG motives being underlined. On the chromatograms, 5-methyl-cytosines appear as cytosines (C), and non methylated cytosines (converted to uracil) as thymines (T). In the presence of 5-aza-2-deoxycytidine, a fraction of the CpG motives is demethylated, resulting in a dual C/T peak.
The human 293H cells (ATCC) were plated at a density of 1.2×10^6 cells per 10 cm dish in complete medium (DMEM supplemented with 2 mM L-glutamine, penicillin (100 IU/ml), streptomycin (100 μg/ml), amphotericin B (Fongizone: 0.25 μg/ml, Invitrogen-Life Science) and 10% FBS) supplemented with 5-aza-deoxycytidine. The next day, cells were transfected with 3 μg of meganuclease expression vector in the presence of 5-aza-deoxycytidine and Lipofectamine 2000 transfection reagent (Invitrogen) according to the manufacturer's protocol.
Cells were pre-treated with 5-aza-deoxycytidine at 0.2 μM or 1 μM 48 hours before transfection and the treatment was maintained 48 hours post-transfection. As a control, cells not treated with 5-aza-2-deoxycytidine (NT) were used. Extraction of genomic DNA was performed 48 hours after transfection.
To assess the level DNA methylation, DNA sequencing was performed after a bisulfite treatment according to the instructions of the manufacturer (EZ DNA methylation-Gold Kit, Zymo Research). After genomic DNA extraction, the XPC4 target locus was amplified by PCR with specific primers

[2] = system: ADCY9 target CpG in 293H cells; assay: DNA methylation status of ADCY9 target by bisulfite technique; assay type: cell-based, human; details: 0.2 and 1 μM; 100% methylated without treatment
Protocol: The human 293H cells (ATCC) were plated at a density of 1.2×10^6 cells per 10 cm dish in complete medium (DMEM supplemented with 2 mM L-glutamine, penicillin (100 IU/ml), streptomycin (100 μg/ml), amphotericin B (Fongizone: 0.25 μg/ml, Invitrogen-Life Science) and 10% FBS). The cells were pre-treated with 5-aza-deoxycytidine at 0.2 μM or 1 μM, 48 hours before transfection and the treatment was maintained 48 hours post-transfection. The medium was changed every day. The cells were transfected with 5 μg of DNA plasmids encoding meganuclease using Lipofectamine 2000 transfection reagent (Invitrogen) according to the manufacturer's protocol.
The procedure as described in Example 4 was followed to assess the level of DNA methylation, except that we used specific primers to amplify the sequence surrounded the ADCY9 meganuclease recognition site. Primers ADCY9_F1 […] (SEQ ID NO: 43) and ADCY9_R1 […] (SEQ ID NO: 44) were used. PCR products were sequenced directly with primer ADCY9_F2 […] (SEQ ID NO: 45).

XPC4.1 DNA target = assay: In vitro single turn over cleavage assay with XPC4.1; assay type: biochemical
Protocol: FIG. 8: In vitro cleavage of unmethylated or methylated XPC4.1 by XPC4. A constant amount of XPC4.1 duplex (50 nM) was incubated with an excess of XPC4 (1.5 μM, final concentration) in the reaction buffer (10 mM Tris-HCl, 150 mM NaCl, pH8) at 37° C. Cleavage reaction was triggered by the addition of MgCl2 and then stopped after different time lengths by the addition of the stop buffer. This was followed by one hour of incubation at 37° C. to digest XPC4 and release free DNA molecules. Cleaved and uncleaved DNA products were separated by PAGE using a TGX Any kD precast gel (Bio-Rad), stained with SYBR Green and then quantified using Quantity One software (Bio-Rad). […]
To investigate the influence of C1234 methylation on the nuclease activity of I-Cre I, in vitro single turn over cleavage assays were performed with either unmethylated or methylated C1234 duplexes (unmethylated C1234 composed of SEQ ID NO: 31+SEQ ID NO: 32, C1234_Me full composed of SEQ ID NO: 35+SEQ ID NO: 38, C1234_Me-6a/-5b composed of SEQ ID NO: 33+SEQ ID NO: 36, C1234_Me-3a/-2b composed of SEQ ID NO: 34+SEQ ID NO: 37, C1234_Me-3a composed of SEQ ID NO: 34+SEQ ID NO: 32, C1234_Me-2b composed of SEQ ID NO: 31+SEQ ID NO: 37, respectively). […] Cleaved and uncleaved DNA products were separated by PAGE using a TGX Any kD precast gel (Bio-Rad), stained with SYBR Green and then quantified using Quantity One software (Bio-Rad). […]

Row | Molecule | amount of unmethylated C, % of total ([1]; 0.2 μM) | amount of unmethylated C, % of total ([1]; 1 μM) | amount of unmethylated C ([1]; 0.2 μM) | amount of unmethylated C ([1]; 1 μM) | amount of methylated CpG within ADCY9 target [2] | kcat (XPC4.1 DNA target; XPC4.1_Me −11a/−10b & +10a/+11b (fully methylated)) | kcat (XPC4.1 DNA target; unmethylated XPC4.1)
1 | Nc1ncn([C@H]2C[C@H](O)[C@@H](CO)O2)c(=O)n1 [5-aza-2′deoxycytidine, reference compound] | 25% | 36% | 35% | 45% | 40% |  | 
2 | XPC4: engineered meganuclease (SEQ ID NO: 2) designed to cleave xeroderma pigmentosum group C gene (XPC) (protein) MANTKYNEEFLLYLAGFVDGDGSIIAQIKPNQSHKFKHALQLTFKVTQKTQRRWFLDKLVDEIGVGYVQDSGSVSNYILSEIKPLHNFLTQLQPFLELKQKQANLALKIIEQLPSAKESPDKFLEVCTWVDQVAALNDSKTRKTTSETVRAVLDSLSEKKKSSPAAGGSDKYNQALSKYNQALSKYNQALSGGGGSNKKFLLYLAGFVDSDGSIIAQIKPNQSHKFKHQLSLAFQVTQKTQRRWFLDKLVDRIGVGYVRDRGSVSDYILSKIKPLHNFLTQLQPFLKLKQKQANLVLKIIEQLPSAKESPDKFLEVCTWVDQVAALNDSKTRKTTSETVRAVLDSLSEKKKSSP |  |  |  |  |  | 0.0017 ± 0.00017 s⁻¹ | 0.0013 ± 0.00017 s⁻¹
